From ChEMBL document CHEMBL5252600, “Anti-Aβ42 Aggregative Polyketides from the Antarctic Psychrophilic Fungus Pseudogymnoascus sp. OUCMDZ-3578” (J Nat Prod, 2023)
The source made the active and inactive calls. The calls are words filed in the database; no cut-off is given here.

What was measured:
[1] = target: T1, Amyloid-beta precursor protein (Homo sapiens, UniProt P05067); assay: Inhibition of Amyloid beta (1 to 42) (unknown origin) aggregation incubated for 24 hrs by ThioflavinT-dye based fluorescence analysis
[2] = Metal chelating activity assessed as compound-Fe3+ complex formation incubated for 1 hr by UV-vis spectrophotometric analysis
[3] = target: T1, Amyloid-beta precursor protein; assay: Inhibition of Amyloid beta (1 to 42) (unknown origin) aggregation at 100 uM incubated for 24 hrs by ThioflavinT-dye based fluorescence analysis
[4] = Metal chelating activity assessed as compound-Cu2+ complex formation incubated for 1 hr by UV-vis spectrophotometric analysis
[5] = target: T1, Amyloid-beta precursor protein; assay: Disaggregation of Fe3+ induced Amyloid beta (1 to 42) (unknown origin) aggregation at 100 uM incubated for 24 hrs by ThioflavinT-dye based fluorescence analysis
[6] = Metal chelating activity assessed as compound-Zn2+ complex formation incubated for 1 hr by UV-vis spectrophotometric analysis

T1 sequence (P05067 whole entry): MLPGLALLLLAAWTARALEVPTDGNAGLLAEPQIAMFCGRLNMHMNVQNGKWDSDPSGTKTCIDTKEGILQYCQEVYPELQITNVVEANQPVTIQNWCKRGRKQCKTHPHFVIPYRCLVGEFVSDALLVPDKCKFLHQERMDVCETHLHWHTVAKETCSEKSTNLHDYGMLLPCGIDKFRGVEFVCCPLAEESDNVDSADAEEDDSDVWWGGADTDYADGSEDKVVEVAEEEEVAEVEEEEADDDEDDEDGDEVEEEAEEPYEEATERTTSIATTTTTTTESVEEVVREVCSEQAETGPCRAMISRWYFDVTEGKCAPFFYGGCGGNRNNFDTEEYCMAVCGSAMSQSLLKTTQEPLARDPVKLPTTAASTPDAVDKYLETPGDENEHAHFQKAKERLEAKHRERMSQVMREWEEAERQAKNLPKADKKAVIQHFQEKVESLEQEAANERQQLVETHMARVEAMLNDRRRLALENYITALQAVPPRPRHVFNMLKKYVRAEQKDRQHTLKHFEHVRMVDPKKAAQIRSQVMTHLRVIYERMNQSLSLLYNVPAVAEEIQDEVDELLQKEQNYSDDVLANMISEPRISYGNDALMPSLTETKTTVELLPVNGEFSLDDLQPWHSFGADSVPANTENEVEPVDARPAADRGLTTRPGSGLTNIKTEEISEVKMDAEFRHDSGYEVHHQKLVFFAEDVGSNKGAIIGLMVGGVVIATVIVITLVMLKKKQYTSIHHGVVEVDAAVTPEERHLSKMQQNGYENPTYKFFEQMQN

Compound | IC50 [1] [µM] | Activity [2] | inhibition [3] [%] | Activity [4] | Activity [5] | Activity [6]
COC(=O)c1c(O)cc(C)c(Sc2c(O)cc(OC)c(Oc3c(O)cc(C)cc3O)c2O)c1C(=O)c1c(O)cc(C)cc1O | 0.1 | Active | 85.7 | Active | Active | Active
COC(=O)c1cc(O[C@@H]2O[C@H](CO)[C@@H](O)[C@H](O)[C@H]2O)cc(OC)c1C(=O)c1c(O)cc(C)cc1O | 4.73 | – | 85.2 | – | – | –
COC(=O)c1cc(O)cc(OC)c1C(=O)c1c(O)cc(CO[C@H]2O[C@H](CO)[C@@H](O)[C@H](O)[C@H]2O)cc1O | 1.03 | Active | 84.5 | Active | Active | Active
Cc1cc(O)c(C(=O)c2c(O)cc3c(c2O)C(=O)c2c(O)cc(C)cc2C3=O)c(C(=O)c2cc(O)c(O)cc2O)c1 | 0.18 | Active | 86.3 | Active | Active | Active
COC(=O)c1c(O)cc(C)cc1C(=O)c1cc(O)cc2oc3cc4c(c(O)c3c12)C(=O)c1c(O)cc(C)cc1C4=O | 1.56 | – | 85.5 | – | – | –
COC(=O)c1cc(O[C@@H]2O[C@H](COC(=O)CCC(=O)O)[C@@H](O)[C@H](O)[C@H]2O)cc(OC)c1C(=O)c1c(O)cc(C)cc1O | 3.01 | – | 64.1 | – | – | –
COc1cc(O)cc(C(=O)O)c1C(=O)c1c(O)cc(CO)cc1O | 1.07 | Active | 73.2 | Active | Active | Active
O=C(O[C@@H]1Cc2c(O)cc(O)cc2O[C@@H]1c1cc(O)c(O)c(O)c1)c1cc(O)c(O)c(O)c1 [EPIGALOCATECHIN GALLATE] | 0.14 | – | – | – | – | –
